Numbering of substitutions follows the chain as printed. Read-outs that look alike come from different tables or passages of the source.

The values below come from publication PMC3274588 (The Plant Journal, 2011).

Experiment [1] addresses T1, ACD2 (ACCELERATED CELL DEATH 2; ACD2^40-320; Red Chlorophyll Catabolite Reductase) (Arabidopsis thaliana, UniProt Q8LDU4).
T1 sequence (Q8LDU4 40-319): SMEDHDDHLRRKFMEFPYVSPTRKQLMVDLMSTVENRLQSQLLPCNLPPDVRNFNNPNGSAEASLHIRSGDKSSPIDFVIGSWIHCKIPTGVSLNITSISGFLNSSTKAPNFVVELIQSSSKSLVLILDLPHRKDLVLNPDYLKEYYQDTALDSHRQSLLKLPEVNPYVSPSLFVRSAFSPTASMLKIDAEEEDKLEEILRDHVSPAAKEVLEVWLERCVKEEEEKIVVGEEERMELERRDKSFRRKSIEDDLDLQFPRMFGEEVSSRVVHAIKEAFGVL
As to the kind of experiment: intrinsic tryptophan fluorescence quenching. In kind it is binding.

For experiment [2], the target named is T2, ACD2 (ACCELERATED CELL DEATH 2; ACD2^40-320; Red Chlorophyll Catabolite Reductase) (Arabidopsis thaliana, UniProt Q8LDU4, E154A/D291H).
T2 sequence (Q8LDU4 40-319 E154A/D291H): T1 sequence (Q8LDU4 40-319) with E115A, D252H
Briefly: intrinsic tryptophan fluorescence quenching. In kind it is binding. Conditions: 0.1 μM protein, 50 mM Na2HPO4 pH 8.0, 25 mM NaCl, 22°C, excitation 296 nm.

In experiment [1], `C=CC1=C(C)c2cc3[nH]c(cc4nc(cc5[nH]c(cc1n2)c(C)c5CCC(=O)O)C(CCC(=O)O)=C4C)c(C)c3C=C` [PPIX] displayed a Kd of 310 ± 20 nM.

Turning to `C=CC1=C(C)/C(=C/C2=NC(=C3\c4[nH]c(Cc5[nH]c(C=O)c(C)c5CC)c(C)c4C(=O)[C@@H]3C(=O)OC)/[C@@H](CCC(=O)O)[C@@H]2C)NC1=O` [RCC], the dissociation constant (Kd) in experiment [2] amounted to 340 ± 30 nM; in experiment [1] (0.1 μM protein, 50 mM Na2HPO4 pH 8.0, 25 mM NaCl, 22°C, excitation 296 nm), 360 ± 30 nM.

The Kd is the constant that tells how readily two partners part at equilibrium.
